{"source": "patent US20240277890A1", "about": "“ANTIMICROBIAL ARTICLES COMPRISING POLYURETHANE” (Amicoat AS, priority 2021, published 2024)", "key": {"trypsin": {"system": "trypsin", "test": "in vitro", "format": "in vitro ADME", "conditions": "pH 8.6", "protocol": "Each peptide was dissolved in a 0.1 M NH4HCO3 buffer (pH 6.5) to yield a final peptide concentration of 1 mg/ml. A trypsin solution was prepared by dissolving 1 mg of trypsin in 50 ml 0.1 M NH4HCO3 buffer (pH 8.2). For the stability determination, 250 μl freshly made trypsin solution and 250 μl peptide solution were incubated in 2 ml of 0.1 M NH4HCO3 buffer (pH 8.6) at 37° C. on a rocking table. Aliquots of 0.5 ml were sampled at different time intervals, diluted with 0.5 ml water:acetonitrile (60:40 v/v) containing 1% TFA and analysed by RP-HPLC as described above. Samples without trypsin addition taken at 0 h and after 20 h at 37° C. were used as negative controls. Integration of the peak area at 254 nm for samples taken during the first 5 hours of the assay was used to generate the τ1/2."}, "[1]": {"system": "Staphylococcus aureus, strain ATCC 25923", "conditions": "Staphylococcus aureus ATCC 25923"}, "[2]": {"system": "Methicillin resistant Staphylococcus aureus (MRSA) strain ATCC 33591", "conditions": "MRSA ATCC 33591"}, "[3]": {"system": "Methicillin resistant Staphylococcus epidermidis (MRSE) strain ATCC 27626", "conditions": "MRSE ATCC 27626"}, "[4]": {"system": "Salmonella sp - antibiotic-susceptible clinical isolate", "test": "MIC microbroth dilution (CLSI)", "format": "cell-based"}, "[5]": {"system": "Salmonella sp - multi-drug resistant clinical isolate", "test": "MIC microbroth dilution (CLSI)", "format": "cell-based"}, "[6]": {"system": "Shigella sp - antibiotic-susceptible clinical isolate", "test": "MIC microbroth dilution (CLSI)", "format": "cell-based"}, "[7]": {"system": "Clostridium difficile - antibiotic-susceptible clinical isolate", "test": "MIC microbroth dilution (CLSI)", "format": "cell-based", "set-up": "unit not given beside the values", "conditions": "C. difficile antibiotic-susceptible", "protocol": "Supplemented Brucella broth (SBB) was used for the anaerobic strains with an inoculum of approximately 10^6 CFU/mL. SBB is a broth consisting of 1% peptone, 0.5% ‘Lab-lemco’, 1% glucose and 0.5% sodium chloride supplemented with 5 μg/L haemin and 1 μg/L vitamin K (both obtained from Sigma Aldrich Ltd.) Yeast and filamentous fungal MIC were performed in MOPS buffered RPMI 1640 medium (MOPS buffer obtained from Sigma Aldrich Ltd., RPMI 1640 obtained from Invitrogen Ltd, Paisley, Scotland). The yeast inocula were in the range 7.5×10^2-4×10^3 CFU/mL and the filamentous fungi approximately 8×10^3-1×10^5 CFU/mL."}, "[8]": {"system": "Candida parapsilosis ATCC 22019", "test": "MIC microbroth dilution (CLSI), extra control strain", "format": "cell-based", "set-up": "unit not given here", "conditions": "C. parapsilosis ATCC 22019; RPMI 1640"}, "[9]": {"system": "Bacteroides fragilis - ATCC 25285", "test": "MIC microbroth dilution (CLSI), extra control strain", "format": "cell-based", "set-up": "unit not given here", "conditions": "B. fragilis ATCC 25285; SBB"}, "[10]": {"system": "Eggerthella lenta - ATCC 43055", "test": "MIC microbroth dilution (CLSI), extra control strain", "format": "cell-based", "set-up": "unit not given here", "conditions": "E. lenta ATCC 43055; SBB"}, "[11]": {"system": "Staphylococcus aureus FDA486", "test": "Murine skin infection model, one day topical treatment", "format": "in vivo, mice", "conditions": "cream or gel containing 2% (w/w) of compound; three topical treatments at three hourly intervals; compared to placebo", "protocol": "(§1) The skin of mice was infected with Staphylococcus aureus or Streptococcus pyogenes and subsequently given a total of three treatments at three hourly intervals. Three hours after the last treatment, skin biopsies were collected and the number of colony forming units (CFUs) present in the skin sample was determined. Results are shown in FIGS. 3, 4 and 5 expressed as the number of colony forming units per mouse."}, "[12]": {"system": "Streptococcus pyogenes CS301", "test": "Murine skin infection model, one day topical treatment", "format": "in vivo, mice", "protocol": "as §1"}, "[13]": {"system": "Microsporum canis - G.R. Micro collection", "conditions": "M. canis"}, "[14]": {"system": "Escherichia coli ATCC25922 - antibiotic-susceptible type strain", "set-up": "MIC (repeat control strain): unit not given beside the values", "conditions": "E. coli ATCC 25922"}, "[15]": {"system": "Pseudomonas aeruginosa ATCC27853 - antibiotic-susceptible type strain", "set-up": "MIC (repeat control strain): unit not given beside the values", "conditions": "P. aeruginosa ATCC 27853"}, "[16]": {"system": "Staphylococcus aureus ATCC 29213 - antibiotic-susceptible control strain", "set-up": "MIC (repeat control strain): unit not given beside the values", "conditions": "S. aureus ATCC 29213"}, "[17]": {"system": "Staphylococcus haemolyticus - antibiotic susceptible clinical isolate", "conditions": "S. haemolyticus antibiotic susceptible isolate"}, "[18]": {"system": "Enterococcus faecalis - ATCC 29212 antibiotic-susceptible control strain", "set-up": "MIC (repeat control strain): unit not given beside the values", "conditions": "E. faecalis ATCC 29212"}, "[19]": {"system": "Haemophilus influenzae - ATCC 47247", "test": "MIC microbroth dilution (CLSI), extra control strain", "set-up": "unit not given beside the values", "conditions": "H. influenzae ATCC 47247; plate type HTM"}}, "note": "Like-named read-outs stand apart in the source and are kept apart here."}
{"smiles": "N=C(N)NCCC[C@H](NC(=O)[C@H](Cc1ccc(-c2ccc3ccccc3c2)cc1)NC(=O)[C@@H](N)CCCNC(=N)N)C(=O)NCCc1ccccc1", "note": "[Compound 1]", "values": [{"measurement": "half-life at 0.1 mg/ml", "setting": "trypsin", "result": "> 24", "unit": "h"}, {"measurement": "MIC S. aureus", "setting": "[1]", "result": 4, "unit": "µM"}, {"measurement": "MIC MRSA", "setting": "[2]", "result": "<3", "unit": "µM"}, {"measurement": "MIC MRSE", "setting": "[3]", "result": "<3", "unit": "µM"}]}
{"smiles": "CC(C)(C)c1cc(C(C)(C)C)c2[nH]c(C(C)(C)C)c(CC(NC(=O)C(N)CCCNC(=N)N)C(=O)NC(CCCNC(=N)N)C(=O)NCCc3ccccc3)c2c1", "note": "(stereo not shown) [Compound 2]", "values": [{"measurement": "MIC", "setting": "[4]", "result": 8}, {"measurement": "MIC", "setting": "[5]", "result": 8}, {"measurement": "MIC", "setting": "[6]", "result": 8}, {"measurement": "MIC", "setting": "[7]", "result": 16}, {"measurement": "MIC (control strain)", "setting": "[8]", "result": 8}, {"measurement": "MIC (control strain)", "setting": "[9]", "result": 64}, {"measurement": "MIC (control strain)", "setting": "[10]", "result": 32}, {"measurement": "number of CFUs in skin biopsy", "setting": "[11]", "result": "the number of CFUs was reduced"}, {"measurement": "number of CFUs in skin biopsy", "setting": "[12]; 1% or 2% gel, three topical treatments at three hourly intervals, compared to placebo gel and bactroban", "result": "more effective at reducing the number of CFUs than the placebo gel or the bactroban"}, {"measurement": "number of CFUs in skin biopsy, 2% gel versus 1% gel", "setting": "[12]; gel containing 2% compared to gel containing 1%", "result": "more effective than the gel containing only 1% of compound 2"}, {"measurement": "MIC", "setting": "[13]", "result": 8}, {"measurement": "MIC (repeat control strain)", "setting": "[14]; plate type Fresh MHB", "result": 8}, {"measurement": "MIC (repeat control strain)", "setting": "[14]; plate type Frozen MHB", "result": 8}, {"measurement": "MIC (repeat control strain)", "setting": "[15]; plate type Fresh MHB", "result": 8}, {"measurement": "MIC (repeat control strain)", "setting": "[15]; plate type Frozen MHB", "result": 8}, {"measurement": "MIC (repeat control strain)", "setting": "[16]; plate type Fresh MHB", "result": 2}, {"measurement": "MIC (repeat control strain)", "setting": "[16]; plate type Frozen MHB", "result": 4}, {"measurement": "MIC", "setting": "[17]", "result": 4}, {"measurement": "MIC (repeat control strain)", "setting": "[18]; plate type Fresh MHB", "result": 4}, {"measurement": "MIC (repeat control strain)", "setting": "[18]; plate type Frozen MHB", "result": 8}, {"measurement": "MIC (control strain)", "setting": "[19]", "result": 4}]}
